According to ChEMBL document CHEMBL6078640, “Trivalent oleanolic acid-glucose conjugates: Synthesis and efficacy against Influenza A virus” (Eur J Med Chem, 2024):

How the values were obtained:
MDCK = assay: Cytotoxicity against dog MDCK cells assessed as reduction in cell viability at 100 uM incubated for 40 hrs by celltiter-glo assay; type: toxicity, cell-based, Canis lupus familiaris
Influenza A virus [1] = assay: Antiviral activity against Influenza A virus H1N1 infected in MDCK cells assessed as inhibition of viral growth at 100 uM relative to control; type: functional
Influenza A virus [2] = assay: Antiviral activity against influenza A virus A/WSN/33(H1N1) infected in MDCK cells assessed as inhibition of viral-induced cytopathic effect pretreated with cells followed by viral infection and measured after 40 hrs by fluorescence based microplate reader analysis; type: functional, organism-based
[3] = Cytotoxicity against dog MDCK cells assessed as reduction in cell viability incubated for 40 hrs by celltiter-glo assay; type: toxicity, cell-based, Canis lupus familiaris
[4] = Selectivity index, ratio of CC50 for dog MDCK cells to IC50 for influenza A virus A/WSN/33(H1N1) infected in MDCK cells; type: toxicity, cell-based; details: read-out: Selectivity Index

| Structure (SMILES) | Activity (MDCK) | inhibition at 100 µM (Influenza A virus [1]) [%] | IC50 (Influenza A virus [2]) [µM] | CC50 at 40 h [3] [µM] | selectivity ratio [4] |
| --- | --- | --- | --- | --- | --- |
| CC1(C)CC[C@]2(C(=O)NCc3cn([C@@H]4O[C@H](CO)[C@@H](O)[C@H](O)[C@H]4O)nn3)CC[C@]3(C)C(=CC[C@@H]4[C@@]5(C)CC[C@H](OC(=O)NCCCCCc6cn(Cc7cc(Cn8cc(CCCCCNC(=O)O[C@H]9CC[C@]%10(C)[C@H]%11CC=C%12[C@@H]%13CC(C)(C)CC[C@]%13(C(=O)NCc%13cn([C@@H]%14O[C@H](CO)[C@@H](O)[C@H](O)[C@H]%14O)nn%13)CC[C@@]%12(C)[C@]%11(C)CC[C@H]%10C9(C)C)nn8)cc(Cn8cc(CCCCCNC(=O)O[C@H]9CC[C@]%10(C)[C@H]%11CC=C%12[C@@H]%13CC(C)(C)CC[C@]%13(C(=O)NCc%13cn([C@@H]%14O[C@H](CO)[C@@H](O)[C@H](O)[C@H]%14O)nn%13)CC[C@@]%12(C)[C@]%11(C)CC[C@H]%10C9(C)C)nn8)c7)nn6)C(C)(C)[C@@H]5CC[C@]43C)[C@@H]2C1 | Non-toxic | > 75 | 72.9 | > 100 | > 1.37 |
| CC1(C)CC[C@]2(C(=O)NCc3cn([C@@H]4O[C@H](CO)[C@@H](O)[C@H](O)[C@H]4O)nn3)CC[C@]3(C)C(=CC[C@@H]4[C@@]5(C)CC[C@H](OC(=O)NCCCCCc6cn(CC(CO)(Cn7cc(CCCCCNC(=O)O[C@H]8CC[C@]9(C)[C@H]%10CC=C%11[C@@H]%12CC(C)(C)CC[C@]%12(C(=O)NCc%12cn([C@@H]%13O[C@H](CO)[C@@H](O)[C@H](O)[C@H]%13O)nn%12)CC[C@@]%11(C)[C@]%10(C)CC[C@H]9C8(C)C)nn7)Cn7cc(CCCCCNC(=O)O[C@H]8CC[C@]9(C)[C@H]%10CC=C%11[C@@H]%12CC(C)(C)CC[C@]%12(C(=O)NCc%12cn([C@@H]%13O[C@H](CO)[C@@H](O)[C@H](O)[C@H]%13O)nn%12)CC[C@@]%11(C)[C@]%10(C)CC[C@H]9C8(C)C)nn7)nn6)C(C)(C)[C@@H]5CC[C@]43C)[C@@H]2C1 | Non-toxic | > 75 | 5.99 | > 100 | > 16.7 |
| CC1(C)CC[C@]2(C(=O)NCc3cn([C@@H]4O[C@H](CO)[C@@H](O)[C@H](O)[C@H]4O)nn3)CC[C@]3(C)C(=CC[C@@H]4[C@@]5(C)CC[C@H](OC(=O)NCc6cn(CC(CO)(Cn7cc(CNC(=O)O[C@H]8CC[C@]9(C)[C@H]%10CC=C%11[C@@H]%12CC(C)(C)CC[C@]%12(C(=O)NCc%12cn([C@@H]%13O[C@H](CO)[C@@H](O)[C@H](O)[C@H]%13O)nn%12)CC[C@@]%11(C)[C@]%10(C)CC[C@H]9C8(C)C)nn7)Cn7cc(CNC(=O)O[C@H]8CC[C@]9(C)[C@H]%10CC=C%11[C@@H]%12CC(C)(C)CC[C@]%12(C(=O)NCc%12cn([C@@H]%13O[C@H](CO)[C@@H](O)[C@H](O)[C@H]%13O)nn%12)CC[C@@]%11(C)[C@]%10(C)CC[C@H]9C8(C)C)nn7)nn6)C(C)(C)[C@@H]5CC[C@]43C)[C@@H]2C1 | Non-toxic | > 75 | 6.91 | > 100 | > 14.5 |
| CC(=O)OC[C@H]1O[C@@H](n2cc(CNC(=O)[C@]34CCC(C)(C)C[C@H]3C3=CC[C@@H]5[C@@]6(C)CC[C@H](OC(=O)NCCCCCc7cn(Cc8cc(Cn9cc(CCCCCNC(=O)O[C@H]%10CC[C@]%11(C)[C@H]%12CC=C%13[C@@H]%14CC(C)(C)CC[C@]%14(C(=O)NCc%14cn([C@@H]%15O[C@H](COC(C)=O)[C@@H](OC(C)=O)[C@H](OC(C)=O)[C@H]%15OC(C)=O)nn%14)CC[C@@]%13(C)[C@]%12(C)CC[C@H]%11C%10(C)C)nn9)cc(Cn9cc(CCCCCNC(=O)O[C@H]%10CC[C@]%11(C)[C@H]%12CC=C%13[C@@H]%14CC(C)(C)CC[C@]%14(C(=O)NCc%14cn([C@@H]%15O[C@H](COC(C)=O)[C@@H](OC(C)=O)[C@H](OC(C)=O)[C@H]%15OC(C)=O)nn%14)CC[C@@]%13(C)[C@]%12(C)CC[C@H]%11C%10(C)C)nn9)c8)nn7)C(C)(C)[C@@H]6CC[C@@]5(C)[C@]3(C)CC4)nn2)[C@H](OC(C)=O)[C@@H](OC(C)=O)[C@@H]1OC(C)=O | Non-toxic | > 75 | 52.9 | > 100 | > 1.89 |
| CCOC(=O)C1=C[C@@H](OC(CC)CC)[C@H](NC(C)=O)[C@@H](N)C1.O=P(O)(O)O [OSELTAMIVIR PHOSPHATE] | Non-toxic | – | 5.47 | > 100 | > 18.3 |
| CC(=O)OC[C@H]1O[C@@H](n2cc(CNC(=O)[C@]34CCC(C)(C)C[C@H]3C3=CC[C@@H]5[C@@]6(C)CC[C@H](OC(=O)NCCc7cn(Cc8cc(Cn9cc(CCNC(=O)O[C@H]%10CC[C@]%11(C)[C@H]%12CC=C%13[C@@H]%14CC(C)(C)CC[C@]%14(C(=O)NCc%14cn([C@@H]%15O[C@H](COC(C)=O)[C@@H](OC(C)=O)[C@H](OC(C)=O)[C@H]%15OC(C)=O)nn%14)CC[C@@]%13(C)[C@]%12(C)CC[C@H]%11C%10(C)C)nn9)cc(Cn9cc(CCNC(=O)O[C@H]%10CC[C@]%11(C)[C@H]%12CC=C%13[C@@H]%14CC(C)(C)CC[C@]%14(C(=O)NCc%14cn([C@@H]%15O[C@H](COC(C)=O)[C@@H](OC(C)=O)[C@H](OC(C)=O)[C@H]%15OC(C)=O)nn%14)CC[C@@]%13(C)[C@]%12(C)CC[C@H]%11C%10(C)C)nn9)c8)nn7)C(C)(C)[C@@H]6CC[C@@]5(C)[C@]3(C)CC4)nn2)[C@H](OC(C)=O)[C@@H](OC(C)=O)[C@@H]1OC(C)=O | Non-toxic | > 75 | 46.8 | > 100 | > 8.55 |
| CC(=O)OC[C@H]1O[C@@H](n2cc(CNC(=O)[C@]34CCC(C)(C)C[C@H]3C3=CC[C@@H]5[C@@]6(C)CC[C@H](OC(=O)NCCc7cn(CC(CO)(Cn8cc(CCNC(=O)O[C@H]9CC[C@]%10(C)[C@H]%11CC=C%12[C@@H]%13CC(C)(C)CC[C@]%13(C(=O)NCc%13cn([C@@H]%14O[C@H](COC(C)=O)[C@@H](OC(C)=O)[C@H](OC(C)=O)[C@H]%14OC(C)=O)nn%13)CC[C@@]%12(C)[C@]%11(C)CC[C@H]%10C9(C)C)nn8)Cn8cc(CCNC(=O)O[C@H]9CC[C@]%10(C)[C@H]%11CC=C%12[C@@H]%13CC(C)(C)CC[C@]%13(C(=O)NCc%13cn([C@@H]%14O[C@H](COC(C)=O)[C@@H](OC(C)=O)[C@H](OC(C)=O)[C@H]%14OC(C)=O)nn%13)CC[C@@]%12(C)[C@]%11(C)CC[C@H]%10C9(C)C)nn8)nn7)C(C)(C)[C@@H]6CC[C@@]5(C)[C@]3(C)CC4)nn2)[C@H](OC(C)=O)[C@@H](OC(C)=O)[C@@H]1OC(C)=O | Non-toxic | > 75 | 10.3 | > 100 | > 9.69 |
| CC1(C)CC[C@]2(C(=O)NCc3cn([C@@H]4O[C@H](CO)[C@@H](O)[C@H](O)[C@H]4O)nn3)CC[C@]3(C)C(=CC[C@@H]4[C@@]5(C)CC[C@H](OC(=O)NCCCc6cn(Cc7cc(Cn8cc(CCCNC(=O)O[C@H]9CC[C@]%10(C)[C@H]%11CC=C%12[C@@H]%13CC(C)(C)CC[C@]%13(C(=O)NCc%13cn([C@@H]%14O[C@H](CO)[C@@H](O)[C@H](O)[C@H]%14O)nn%13)CC[C@@]%12(C)[C@]%11(C)CC[C@H]%10C9(C)C)nn8)cc(Cn8cc(CCCNC(=O)O[C@H]9CC[C@]%10(C)[C@H]%11CC=C%12[C@@H]%13CC(C)(C)CC[C@]%13(C(=O)NCc%13cn([C@@H]%14O[C@H](CO)[C@@H](O)[C@H](O)[C@H]%14O)nn%13)CC[C@@]%12(C)[C@]%11(C)CC[C@H]%10C9(C)C)nn8)c7)nn6)C(C)(C)[C@@H]5CC[C@]43C)[C@@H]2C1 | Non-toxic | > 75 | 43.9 | > 100 | > 2.28 |
| CC(=O)OC[C@H]1O[C@@H](n2cc(CNC(=O)[C@]34CCC(C)(C)C[C@H]3C3=CC[C@@H]5[C@@]6(C)CC[C@H](OC(=O)NCCCc7cn(CC(CO)(Cn8cc(CCCNC(=O)O[C@H]9CC[C@]%10(C)[C@H]%11CC=C%12[C@@H]%13CC(C)(C)CC[C@]%13(C(=O)NCc%13cn([C@@H]%14O[C@H](COC(C)=O)[C@@H](OC(C)=O)[C@H](OC(C)=O)[C@H]%14OC(C)=O)nn%13)CC[C@@]%12(C)[C@]%11(C)CC[C@H]%10C9(C)C)nn8)Cn8cc(CCCNC(=O)O[C@H]9CC[C@]%10(C)[C@H]%11CC=C%12[C@@H]%13CC(C)(C)CC[C@]%13(C(=O)NCc%13cn([C@@H]%14O[C@H](COC(C)=O)[C@@H](OC(C)=O)[C@H](OC(C)=O)[C@H]%14OC(C)=O)nn%13)CC[C@@]%12(C)[C@]%11(C)CC[C@H]%10C9(C)C)nn8)nn7)C(C)(C)[C@@H]6CC[C@@]5(C)[C@]3(C)CC4)nn2)[C@H](OC(C)=O)[C@@H](OC(C)=O)[C@@H]1OC(C)=O | Non-toxic | > 75 | 4.61 | > 100 | > 21.7 |
| CC1(C)CC[C@]2(C(=O)NCc3cn([C@@H]4O[C@H](CO)[C@@H](O)[C@H](O)[C@H]4O)nn3)CC[C@]3(C)C(=CC[C@@H]4[C@@]5(C)CC[C@H](OC(=O)NCCc6cn(CC(CO)(Cn7cc(CCNC(=O)O[C@H]8CC[C@]9(C)[C@H]%10CC=C%11[C@@H]%12CC(C)(C)CC[C@]%12(C(=O)NCc%12cn([C@@H]%13O[C@H](CO)[C@@H](O)[C@H](O)[C@H]%13O)nn%12)CC[C@@]%11(C)[C@]%10(C)CC[C@H]9C8(C)C)nn7)Cn7cc(CCNC(=O)O[C@H]8CC[C@]9(C)[C@H]%10CC=C%11[C@@H]%12CC(C)(C)CC[C@]%12(C(=O)NCc%12cn([C@@H]%13O[C@H](CO)[C@@H](O)[C@H](O)[C@H]%13O)nn%12)CC[C@@]%11(C)[C@]%10(C)CC[C@H]9C8(C)C)nn7)nn6)C(C)(C)[C@@H]5CC[C@]43C)[C@@H]2C1 | Non-toxic | – | 3.39 | > 100 | > 29.5 |
